The values below come from US11699530B2, “Use of multivariate analysis to assess treatment approaches” (RENSSELAER POLYTECHNIC INSTITUTE, priority 2018, dated 2023).

“Also recorded” adds a separate entry of the source.

Assay [1] deals with FOCM/TS metabolic profiles of individuals with ASD. Kind of assay: FDA model evaluation of clinical trial treatment data (Type II error and discriminant score shift). The format is in vivo, children. Conditions: for Post-treatment Type II Error: PDF of post-treatment discriminant scores with respect to H0, 12 weeks (BH4: average of 8 and 16 weeks); for change in Type II error / correction of metabolic abnormalities (in words): comparison among treatments; for Effect Size (95% CI): median paired pre-to-post-treatment change in discriminant score, CI by bootstrap, 10,000 replications; for Change in Type II Error: pre- to post-treatment, with respect to H0. The method, then:
MeCbl+LDFA Treatment Data. Subcutaneously injected MeCbl (75 μg/kg, once every three days) in combination with oral LDFA (400 μg, twice per day) was given to children with autism in a 12-week open-label trial. Included children were aged 2 to 7 years and met the diagnostic criteria for autism as defined by the DSM-IV in addition to having a Childhood Autism Rating Scales score greater than 30. Boys and girls made up 82% and 18% of participants in this study, respectively. The IRB at the University of Arkansas for Medical Sciences approved the protocol for this study.
BH4 Treatment Data. A 16-week open-label trial investigated the effects of orally administered BH4 (20 mg/kg, once per day) in children aged 2 to 6 years old with a previous diagnosis of ASD that was confirmed at the time of evaluation with DSM-IV criteria. […] Study participants were 90% males. Approval for this study was given by the IRB at the University of Texas Health Science Center at Houston, Tex. FOCM/TS markers were measured at 8 and 16 weeks following the onset of treatment in this trial; to maintain consistency with the other trials where markers were measured after 12 weeks, the averages of the measurements taken at 8 and 16 weeks were used.
HDFA Treatment Data. A double-blind placebo-controlled trial of HDFA (2 mg/kg per day up to a maximum of 50 mg daily, given orally) was administered over 12 weeks to children between 3 and 14 years of age. ASD diagnoses were made using the Autism Diagnostic Observation Schedule and/or Autism Diagnostic Interview—Revised, or by agreement between physician, psychologist, and speech therapist, or by a physician's diagnosis according to the Diagnostic and Statistical Manual of Mental Disorders, Fifth Edition with later confirmation by the investigators. All children were required to have documented language impairment. 78% of the treatment group were male while 80% of the placebo group were male. The protocol was approved by the IRB at the University of Arkansas for Medical Sciences. All data for participants receiving a placebo in the current analysis were provided.
Biochemical Measurements. Concentrations and ratios of metabolites in the FOCM and TS pathways were measured in each of the above studies, with fifteen measurements appearing in all four data sets. Six of these measures were associated with DNA methylation: methionine, S-adenosylmethionine (SAM), S-adenosylhomocysteine (SAH), the SAM/SAH ratio (an indicator of DNA methylation capacity), homocysteine, and adenosine. The remaining nine measures were precursors of glutathione or markers of redox metabolism: total cysteine, glutamylcysteine (Glu-Cys), cysteinylglycine (Cys-Gly), total and free reduced glutathione (tGSH and fGSH, respectively), oxidized glutathione (GSSG), the ratios of total and free reduced glutathione to oxidized glutathione (tGSH/GSSG and fGSH/GSSG, respectively; these are indicators of intracellular oxidative stress), and percent oxidized glutathione (a derived measure calculated as 2GSSG/[GSH+2GSSG]).
Fisher Discriminant Analysis. Individuals of the IMAGE study were separated into ASD and TD cohorts using Fisher discriminant analysis (FDA). FDA used the data matrix X of size n×m as input, where n study participants are each defined by m biochemical measurements. Sample information for study participant i was contained in row vector xi (size 1×m) and that participant's value for measurement j is indicated by xi,j. The input matrix X were considered as two matrices XASD and XTD taken to represent the separate samples for the ASD and TD cohorts, respectively, with XASD composed of nASD samples and XTD having nTD samples. […]

The next assay concerns ASD-related symptoms. The settings on record: cited from earlier work.

Turning to `Nc1nc(=O)c2c([nH]1)NCC(CNc1ccc(C(=O)N[C@@H](CCC(=O)O)C(=O)O)cc1)N2C=O` (mixture of isomers) [HDFA, high-dose folinic acid], in assay [1], the “Post-treatment Type II Error” value is given as 49.5%, the “change in Type II error / correction of metabolic abnormalities (in words)” value is on record as “relatively small increase in Type II error”, the “Effect Size (95% CI)” value is reported as 0.17 and the “Change in Type II Error” value is “+17.2%”. Also, in assay [1] (bootstrap 95% CI of median change in discriminant score), the “95% CI for the effect size relative to zero (in words)” value is recorded as “contained zero”.

Take `Nc1nc(=O)c2c([nH]1)NCC(CNc1ccc(C(=O)N[C@@H](CCC(=O)O)C(=O)O)cc1)N2C=O` (mixture of isomers) [folinic acid, Folinic acid]: the “outcome of treatment (cerebrospinal fluid, symptoms and behavior)” value in the assay with ASD-related symptoms (ASD) was “correct certain abnormalities of the cerebrospinal fluid and improve ASD-related symptoms and behavior”.

With `C[C@H](O)[C@H](O)[C@H]1CNc2nc(N)[nH]c(=O)c2N1` [BH4, tetrahydrobiopterin], in assay [1], the “Post-treatment Type II Error” value amounted to 41.1%, the “Effect Size (95% CI)” value is recorded as 0.73 and the “Change in Type II Error” value is “+40.8%”.

On to `C/C1=C2/[N-][C@H]([C@H](CC(N)=O)[C@@]2(C)CCC(=O)NC[C@@H](C)OP(=O)([O-])O[C@H]2[C@@H](O)[C@@H](n3cnc4cc(C)c(C)cc43)O[C@@H]2CO)[C@]2(C)N=C(/C(C)=C3N=C(/C=C4N=C1[C@@H](CCC(N)=O)C\4(C)C)[C@@H](CCC(N)=O)[C@]\3(C)CC(N)=O)[C@@H](CCC(N)=O)[C@]2(C)CC(N)=O.[CH3-].[Co+3]` [MeCbl, methylcobalamin], for which the “outcome of open-label and double-blind placebo-controlled studies” value in the assay with ASD-related symptoms (children with ASD) was “improvement in metabolism and ASD-related symptoms”.

As for “methylcobalamin (MeCbl) in combination with low-dose folinic acid (LDFA) [MeCbl + LDFA]”, in assay [1], the “Post-treatment Type II Error” value was found to be 43.6%, the “change in Type II error / correction of metabolic abnormalities (in words)” value is “greatest correction in ASD-related metabolic abnormalities; also recorded: largest increase in Type II error”, the “Effect Size (95% CI)” value was 0.89 and the “Change in Type II Error” value was “+41.9%”.
